Counter-ions that a name gives are not always drawn.
What follows are compounds tested against T1, human EP3 receptor (Homo sapiens, UniProt P43115) (assay: Cellular in vitro assay for determining EP3 receptor activity (human EP3 cell line, sulprostone-stimulated calcium luminescence)). Conditions: CHO cells expressing human EP3 and mitochondrial Clytin; antagonist mode, sulprostone at EC50; read-out: EP3 CHO mtCLY ANTAG IC50.
T1 construct: expressed in transfected cells; host or cells: CHO K1 (Chinese Hamster Ovary), stably co-transfected with Galpha16 and mitochondrial clytin
T1 sequence (P43115 1-390): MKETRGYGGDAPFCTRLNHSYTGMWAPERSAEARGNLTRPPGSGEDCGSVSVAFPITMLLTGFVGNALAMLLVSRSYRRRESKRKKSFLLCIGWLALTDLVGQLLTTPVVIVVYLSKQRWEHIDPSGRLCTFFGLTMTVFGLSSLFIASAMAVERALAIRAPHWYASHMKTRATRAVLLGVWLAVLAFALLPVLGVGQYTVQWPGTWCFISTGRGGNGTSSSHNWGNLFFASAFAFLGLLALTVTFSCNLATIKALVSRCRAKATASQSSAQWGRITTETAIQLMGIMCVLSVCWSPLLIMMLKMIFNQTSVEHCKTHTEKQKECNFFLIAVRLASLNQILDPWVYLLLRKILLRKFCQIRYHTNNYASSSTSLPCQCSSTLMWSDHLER
Type: cell-based
Outline: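 CHO K1 cells stably expressing human EP3 with Gα16 and mitochondrial Clytin, loaded overnight with coelenterazine. Compounds added 10 min before sulprostone at its EC50; antagonism read immediately as reduced calcium-driven luminescence, quadruplicate points.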

| IC50 [nM] | SMILES |
| --- | --- |
| 2 | Cc1ccc(-c2cn3nc(C(=O)NCC(O)C(F)(F)F)c(C4CC4)c3c(=O)[nH]2)cc1F (racemic) [Example 1-159, 3-Cyclopropyl-6-(3-fluoro-4-methylphenyl)-4-oxo-N-(3,3,3-trifluoro-2-hydroxpropyl)-4,5-dihydro-pyrazolo[1,5-a]pyrazine-2-carboxamide (racemate)] |
| 2.97 | C[C@@H](NC(=O)c1cc2c(=O)[nH]c(-c3ccc4ccccc4c3)cn2n1)c1ccc(F)cc1 [6-78] |
| 7 | Cc1c(C(=O)NCc2cc[nH]n2)nn2c(C)c(-c3ccc4ccccc4c3)[nH]c(=O)c12 [Example 3-5, 3,7-Dimethyl-6-(naphthalen-2-yl)-4-oxo-N-[(1H-pyrazol-3-yl)methyl]-4,5-dihydropyrazolo[1,5-a]pyrazine-2-carboxamide] |
| 2.7 | Cc1ccc(-c2cn3nc(C(=O)NCC(O)C(F)F)c(C4CC4)c3c(=O)[nH]2)cc1F (single isomer, unassigned) [6-371] |
| 8.4 | Cc1ccc(-c2cn3nc(C(=O)NCCC(F)(F)F)c(C(F)(F)F)c3c(=O)[nH]2)cc1F [6-148] |
| 1.8 | Cc1ccc(-c2cn3nc(C(=O)N[C@@H](C)c4ccc(F)cc4)cc3c(=O)[nH]2)cc1Cl [6-82] |
| 4.1 | COC[C@H](NC(=O)c1nn2cc(-c3ccc(C)c(Cl)c3)[nH]c(=O)c2c1C1CC1)c1ccccc1 [6-277] |
| 4.75 | N#Cc1c(C(=O)NC2(c3ccc(F)cc3)CC2)nn2cc(-c3ccc4ccccc4c3)[nH]c(=O)c12 [6-70] |
| 9.55 | Cc1cc(CNC(=O)c2nn3c(C)c(-c4ccc5ccccc5c4)[nH]c(=O)c3c2C)on1 [Example 3-15, 3,7-Dimethyl-N-[(3-methyl-1,2-oxazol-5-yl)methyl]-6-(naphthalen-2-yl)-4-oxo-4,5-dihydropyrazolo[1,5-a]pyrazine-2-carboxamide] |
| 1.45 | Cc1cc(-c2cn3nc(C(=O)NC(c4ccc(F)cc4)C4(O)CC4)c(C(F)(F)F)c3c(=O)[nH]2)ccc1Cl (racemic) [6-210] |
| 2.65 | COC[C@@H](NC(=O)c1cc2c(=O)[nH]c(-c3ccc4ccccc4c3)cn2n1)c1ccccc1 [6-51] |
| 1.35 | COc1ccc(-c2cn3nc(C(=O)N[C@@H](c4ccc(F)cc4)C(F)(F)CO)c(C4CC4)c3c(=O)[nH]2)cc1F [6-586] |
| 2.9 | CCn1cnnc1CNC(=O)c1nn2cc(-c3cnc4cccc(C)c4c3)[nH]c(=O)c2c1C(C)C [Example 4-20, N-[(4-Ethyl-4H-1,2,4-triazol-3-yl)methyl]-6-(5-methylquinolin-3-yl)-4-oxo-3-(propan-2-yl)-4,5-dihydropyrazolo[1,5-a]pyrazine-2-carboxamide] |
| 0.97 | Cc1cc(-c2cn3nc(C(=O)N[C@H]4CCN(C5CC5)C4)c(C4CC4)c3c(=O)[nH]2)ccc1Cl (single isomer, unassigned) [6-324] |
| 5 | O=C(NC1(c2ccc(F)cc2)CN(C(CF)CF)C1)c1nn2cc(-c3ccc4ccccc4c3)[nH]c(=O)c2c1C(F)(F)F [Example 1-177, N-[1-(1,3-Difluoropropan-2-yl)-3-(4-fluorophenyl)azetidin-3-yl]-6-(naphthalen-2-yl)-4-oxo-3-(trifluoro-methyl)-4,5-dihydropyrazolo[1,5-a]pyrazine-2-carboxamide] |
| 1.5 | O=C(N[C@@H](c1ccc(F)cc1)C(F)(F)CO)c1nn2cc(-c3ccc(Cl)cc3)[nH]c(=O)c2c1C1CC1 [6-675] |
| 1.5 | Cc1cc(-c2cn3nc(C(=O)N[C@H](CN4CCOCC4)c4ccc(F)cc4)c(C4CC4)c3c(=O)[nH]2)ccc1Cl [6-337] |
| 3.35 | O=C(NC1(c2ccc(F)cc2)CNC1)c1nn2cc(-c3ccc4ccccc4c3)[nH]c(=O)c2c1C(F)(F)F [Example 1-125, N-[3-(4-Fluorophenyflazetidin-3-yl]-6-(naphthalen-2-yl)-4-oxo-3-(trifluoromethyl)-4,5-dihydropyrazolo[1,5-a]pyrazine-2-carboxamide hydrochloride] |
| 5.75 | CC(C)(O)[C@@H](NC(=O)c1cc2c(=O)[nH]c(-c3ccc4c(c3)CCC4)cn2n1)c1ccc(F)cc1 [Example 1-134, 6-(2,3-Dihydro-1H-inden-5-yl)-N-[(1S)-1-(4-fluorophenyl)-2-hydroxy-2-methylpropyl]-4-oxo-4,5-dihydropyrazolo[1,5-a]pyrazine-2-carboxamide] |
| 2.3 | CC[C@@H](C)NC(=O)c1nn2cc(-c3ccc(Cl)c(C)c3)[nH]c(=O)c2c1C(F)(F)C(F)(F)F [6-479] |
| 1.06 | CC(C)c1c(C(=O)N[C@@H](c2ccc(F)cc2)C(C)(C)O)nn2cc(-c3cccc(Cl)c3)[nH]c(=O)c12 [6-683] |

| IC50 [nM] | SMILES |
| --- | --- |
| 8.5 | Cc1ccc(-c2cn3nc(C(=O)NC4CCN(CC(F)(F)F)C4)c(C4CC4)c3c(=O)[nH]2)cc1F (single isomer, unassigned) [6-390] |
| 1.87 | COc1ccc(CNC(=O)c2cc3c(=O)[nH]c(-c4ccc5c(c4)OCCO5)cn3n2)cc1OC [6-76] |
| 1.35 | Cc1cc(-c2cn3nc(C(=O)N[C@@H](C)C4CC4)c(C(F)(F)F)c3c(=O)[nH]2)ccc1Cl [6-214] |
| 5.8 | Cc1cccc2ncc(-c3cn4nc(C(=O)NC5(c6ccc(F)cc6)CN(C)C5)c(C(C)C)c4c(=O)[nH]3)cc12 [Example 1-25, N-[3-(4-Fluorophenyl)-1-methylazetidin-3-yl]-6-(5-methylquinolin-3-yl)-4-oxo-3-(propan-2-yl)-4,5-dihydropyrazolo[1,5-a]pyrazine-2-carboxamide] |
| 3.43 | Cc1ccc(-c2cn3nc(C(=O)N[C@@H](c4ccc(F)cc4)C(F)(F)CO)c(C)c3c(=O)[nH]2)c(F)c1F [6-413] |
| 3.7 | Cc1ccc(-c2cn3nc(C(=O)N[C@@H](c4ccc(F)cc4)C(C)(C)O)c(C)c3c(=O)[nH]2)nc1C [6-634] |
| 0.83 | COc1ccc(-c2cn3nc(C(=O)N[C@@H](c4ccc(F)cc4)C(C)(C)O)c(C4CC4)c3c(=O)[nH]2)cc1F [6-587] |
| 0.92 | Cc1ccc(-c2cn3nc(C(=O)N[C@@H](c4ccc(F)cc4)C(F)(F)CO)c(C(F)(F)F)c3c(=O)[nH]2)cc1Cl [6-157] |
| 0.46 | Cc1cc(-c2cn3nc(C(=O)N[C@@H](c4ccc(F)cc4)C(C)(C)O)c(C4CC4)c3c(=O)[nH]2)c(F)cc1Cl [6-594] |
| 1.75 | Cc1cccc2ncc(-c3cn4nc(C(=O)Nc5ccnn5C)c(C(C)C)c4c(=O)[nH]3)cc12 [Example 4-19, N-(1-Methyl-1H-pyrazol-5-yl)-6-(5-methylquinolin-3-yl)-4-oxo-3-(propan-2-yl)-4,5-dihydropyrazolo[1,5-a]pyrazine-2-carboxamide] |
| 2.4 | Cc1cccc2ncc(-c3cn4nc(C(=O)NC(C)c5cccnc5)c(C(C)C)c4c(=O)[nH]3)cc12 (centres unmarked) [Example 4-70, 3-Isopropyl-6-(5-methyl-3-quinolyl)-4-oxo-N-[1-(3-pyridyl)ethyl]-5H-pyrazolo[1,5-a]pyrazine-2-carboxamide] |
| 0.88 | O=C(N[C@H](CCO)c1ccc(F)cc1)c1cc2c(=O)[nH]c(-c3ccc4c(c3)CCC4)cn2n1 [Example 1-97, 6-(2,3-Dihydro-1H-inden-5-yl)-N-[(1R)-1-(4-fluorophenyl)-3-hydroxpropyl]-4-oxo-4,5-dihydropyrazolo[1,5-a]pyrazine-2-carboxamide] |
| 9.5 | Cc1cc(-c2cn3nc(C(=O)NC4CCN(C5CC5)C4)c(C(F)(F)F)c3c(=O)[nH]2)ccc1Cl (single isomer, unassigned) [6-241] |
| 0.265 | Cc1ccc(-c2cn3nc(C(=O)N[C@H](CCO)c4ccc(F)cc4)cc3c(=O)[nH]2)cc1C [Example 1-39, 6-(3,4-Dimethylphenyl)-N-[(1R)-1-(4-fluorophenyl)-3-hydroxpropyl]-4-oxo-4,5-dihydropyrazolo-[1,5-a]pyrazine-2-carboxamide] |
| 2.2 | Cc1ccc(-c2cn3nc(C(=O)NCCC(O)C(F)(F)F)c(C4CC4)c3c(=O)[nH]2)cc1F (racemic) [6-366] |
| 1.3 | Cc1ccc(-c2cn3nc(C(=O)N[C@H](C)C(C)C)c(C4CC4)c3c(=O)[nH]2)cc1Cl [6-274] |
| 6.5 | CC(C)C(CNC(=O)c1cc2c(=O)[nH]c(-c3ccc4ccccc4c3)cn2n1)n1cccn1 (centres unmarked) [Example 2-17, N-[3-Methyl-2-(1H-pyrazol-1-yl)butyl]-6-(2-naphthyl)-4-oxo-4,5-dihydropyrazolo[1,5-a]pyrazine-2-carboxamide] |
| 6.05 | COc1ccc2c(c1)C(NC(=O)c1nn3cc(-c4cnc5cccc(C)c5c4)[nH]c(=O)c3c1C(C)C)CC(C)(C)O2 (centres unmarked) [Example 4-74, 3-Isopropyl-N-(6-methoxy-2,2-dimethyl-3,4-dihydro-2H-chromen-4-yl)-6-(5-methylquinolin-3-yl)-4-oxo-4,5-dihydropyrazolo[1,5-a]pyrazine-2-carboxamide] |
| 3.35 | CN1CC(NC(=O)c2nn3cc(-c4ccc(Cl)c(F)c4)[nH]c(=O)c3c2C2CC2)(c2ccc(F)cc2)C1 [Example 1-169, 6-(4-Chloro-3-fluorophenyl)-3-cyclopropyl-N-[3-(4-fluorophenyl)-1-methylazetidin-3-yl]-4-oxo-4,5-dihydropyrazolo[1,5-a]pyrazine-2-carboxamide] |
| 2.95 | COc1ccc(C(C)NC(=O)c2nn3c(C)c(-c4ccc5ccccc5c4)[nH]c(=O)c3c2C)cc1 (centres unmarked) [Example 3-57, N-[1-(4-Methoxyphenyl)ethyl]-3,7-dimethyl-6-(2-naphthyl)-4-oxo-5H-pyrazolo[1,5-a]pyrazine-2-carboxamide] |

Source: US20220324865A1 (Bayer Aktiengesellschaft, priority 2018, published 2022)
